Results reported in ChEMBL document CHEMBL3639378, “Morpholinone compounds as factor IXA inhibitors” (2015).
pIC50: −log10 of the molar value.

Target: Coagulation factor IX (Homo sapiens, UniProt P00740)
Experiment: Test substances dissolved in buffer A (50 mM α,α,α-tris (hydroxymethyl)methylamine (Tris), 100 mM NaCl, 5 mM CaCl2, 15% (v/v) ethylene glycol, pH 8.0) were mixed with factor IXa (2.0 μg/ml final concentration). The enzyme reaction was started by addition of SPECTROFLUOR FIXa (100 μM final concentration).

Sequence of Coagulation factor IX (P00740 47-191 limits assumed): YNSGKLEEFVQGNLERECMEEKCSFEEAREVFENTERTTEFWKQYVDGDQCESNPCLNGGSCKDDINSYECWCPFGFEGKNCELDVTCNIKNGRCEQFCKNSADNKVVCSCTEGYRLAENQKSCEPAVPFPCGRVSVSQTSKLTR
Sequence of Coagulation factor IX (P00740 227-461 limits assumed): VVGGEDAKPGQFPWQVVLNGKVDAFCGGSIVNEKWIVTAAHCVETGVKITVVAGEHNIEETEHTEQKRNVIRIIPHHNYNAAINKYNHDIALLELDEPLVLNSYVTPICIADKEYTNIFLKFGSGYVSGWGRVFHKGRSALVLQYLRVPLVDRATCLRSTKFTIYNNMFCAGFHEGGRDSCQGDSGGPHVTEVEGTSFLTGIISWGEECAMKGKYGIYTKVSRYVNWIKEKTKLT

pIC50: 6.89
SMILES: Cc1ccc(CN2CCO[C@H]([C@@H](O)C(=O)Nc3ccc(C(=N)N)cc3)C2=O)cc1
